From patent US9487515B2, “Compounds modulating c-fms and/or c-kit activity and uses therefor” (Plexxikon Inc., priority 2006, dated 2016)

Molecular target: c-kit (Homo sapiens, UniProt P10721)
Test: c-kit assays of Examples 40 and 41 (AlphaScreen kinase assays at 10 and 100 μM ATP, 33P-ATP filter assay, M-07e SCF-stimulated proliferation and phosphorylation)

Chain of c-kit (P10721 with tags, fused parts or gaps): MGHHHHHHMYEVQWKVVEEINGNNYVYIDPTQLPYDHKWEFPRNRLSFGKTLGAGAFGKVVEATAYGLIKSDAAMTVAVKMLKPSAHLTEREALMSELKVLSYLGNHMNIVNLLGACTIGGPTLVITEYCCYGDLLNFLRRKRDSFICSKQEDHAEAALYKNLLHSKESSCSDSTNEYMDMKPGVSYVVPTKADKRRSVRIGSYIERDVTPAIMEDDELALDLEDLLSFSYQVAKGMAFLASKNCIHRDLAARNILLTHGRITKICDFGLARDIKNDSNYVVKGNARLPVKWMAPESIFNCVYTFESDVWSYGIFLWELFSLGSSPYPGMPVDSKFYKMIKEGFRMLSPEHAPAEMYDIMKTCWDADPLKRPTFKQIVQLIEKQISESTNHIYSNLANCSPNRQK

Row | SMILES | IC50 [nM]
1 | c1cc(CNc2ccc(Cc3c[nH]c4ncccc34)cn2)nc(N2CCOCC2)c1 [P-0228, (6-Morpholin-4-yl-pyridin-2-ylmethyl)-[5-(1H-pyrrolo[2,3-b]pyridin-3-ylmethyl)-pyridin-2-yl]-amine] | < 1000
2 | Cc1cnc2[nH]cc(Cc3ccc(NCc4ccc(C(F)(F)F)nc4)nc3Cl)c2c1 [P-0234, [6-Chloro-5-(5-methyl-1H-pyrrolo[2,3-b]pyridin-3-ylmethyl)-pyridin-2-yl]-(6-trifluoromethyl-pyridin-3-ylmethyl)-amine] | < 1000
3 | Clc1cnc2[nH]cc(Cc3sc(NCc4ccncc4)nc3Cl)c2c1 [P-0237, [4-Chloro-5-(5-chloro-1H-pyrrolo[2,3-b]pyridin-3-ylmethyl)-thiazol-2-yl]-pyridin-4-ylmethyl-amine] | < 1000
4 | CCn1cc(CNc2nc(Cl)c(Cc3c[nH]c4ncc(Cl)cc34)s2)cn1 [P-0239, [4-Chloro-5-(5-chloro-1H-pyrrolo[2,3-b]pyridin-3-ylmethyl)-thiazol-2-yl]-(1-ethyl-1H-pyrazol-4-ylmethyl)-amine] | < 1000
5 | FC(F)(F)c1ccc(CNc2nc(Cl)c(Cc3c[nH]c4ncc(Cl)cc34)s2)cn1 [P-0242, [4-Chloro-5-(5-chloro-1H-pyrrolo[2,3-b]pyridin-3-ylmethyl)-thiazol-2-yl]-(6-trifluoromethyl-pyridin-3-ylmethyl)-amine] | < 1000
6 | Fc1cccc(Cl)c1CNc1nc(Cl)c(Cc2c[nH]c3ncc(Cl)cc23)s1 [P-0243, [4-Chloro-5-(5-chloro-1H-pyrrolo[2,3-b]pyridin-3-ylmethyl)-thiazol-2-yl]-(2-chloro-6-fluoro-benzyl)-amine] | < 1000
7 | Clc1cnc2[nH]cc(Cc3sc(NCCc4ccccc4)nc3Cl)c2c1 [P-0244, [4-Chloro-5-(5-chloro-1H-pyrrolo[2,3-b]pyridin-3-ylmethyl)-thiazol-2-yl]-phenethyl-amine] | < 1000
8 | Fc1ccc(CNc2nc(Cl)c(Cc3c[nH]c4ncc(Cl)cc34)s2)c(F)c1 [P-0245, [4-Chloro-5-(5-chloro-1H-pyrrolo[2,3-b]pyridin-3-ylmethyl)-thiazol-2-yl]-(2,4-difluoro-benzyl)-amine] | < 1000
9 | Fc1ccccc1CNc1nc(Cl)c(Cc2c[nH]c3ncc(Cl)cc23)s1 [P-0246, [4-Chloro-5-(5-chloro-1H-pyrrolo[2,3-b]pyridin-3-ylmethyl)-thiazol-2-yl]-(2-fluoro-benzyl)-amine] | < 1000
10 | Clc1cnc2[nH]cc(Cc3sc(NCc4cccc(N5CCOCC5)n4)nc3Cl)c2c1 [P-0252, [4-Chloro-5-(5-chloro-1H-pyrrolo[2,3-b]pyridin-3-ylmethyl)-thiazol-2-yl]-(6-morpholin-4-yl-pyridin-2-ylmethyl)-amine] | < 1000
11 | Clc1cnc2[nH]cc(Cc3sc(NCc4c(Cl)cncc4Cl)nc3Cl)c2c1 [P-0253, [4-Chloro-5-(5-chloro-1H-pyrrolo[2,3-b]pyridin-3-ylmethyl)-thiazol-2-yl]-(3,5-dichloro-pyridin-4-ylmethyl)-amine] | < 1000
12 | N#Cc1cnc2[nH]cc(Cc3ccc(NCc4ccc(Cl)cc4)nc3)c2c1 [P-0257, 3-[6-(4-Chloro-benzylamino)-pyridin-3-ylmethyl]-1H-pyrrolo[2,3-b]pyridine-5-carbonitrile] | < 1000
13 | CCCS(=O)(=O)Nc1ccc(F)c(CNc2ccc(Cc3c[nH]c4ncccc34)cn2)c1F [P-0258, propane-1-sulfonic acid (2,4-difluoro-3-[5-(1H-pyrrolo[2,3-b]pyridin-3-ylmethyl)-pyridin-2-ylamino]-methyl-phenyl)-amide] | < 1000
14 | CCCS(=O)(=O)Nc1ccc(F)c(CNc2ccc(Cc3c[nH]c4ncc(Cl)cc34)cn2)c1F [P-0259, Propane-1-sulfonic acid (3-{[5-(5-chloro-1H-pyrrolo[2,3-b]pyridin-3-ylmethyl)-pyridin-2-ylamino]-methyl}-2,4-difluoro-phenyl)-amide] | < 1000
15 | Clc1ccc(CNc2ncc(Cc3c[nH]c4ncc(Cl)cc34)cn2)cc1 [P-0260, (4-Chloro-benzyl)-[5-(5-chloro-1H-pyrrolo[2,3-b]pyridin-3-ylmethyl)-pyrimidin-2-yl]-amine] | < 1000
16 | FC(F)(F)c1ccccc1CNc1ncc(Cc2c[nH]c3ncc(Cl)cc23)cn1 [P-0262, [5-(5-Chloro-1H-pyrrolo[2,3-b]pyridin-3-ylmethyl)-pyrimidin-2-yl]-(2-trifluoromethyl-benzyl)-amine] | < 1000
17 | Clc1cnc2[nH]cc(Cc3cnc(NCc4ccccc4Cl)nc3)c2c1 [P-0263, (2-Chloro-benzyl)-[5-(5-chloro-1H-pyrrolo[2,3-b]pyridin-3-ylmethyl)-pyrimidin-2-yl]-amine] | < 1000

Further lines, results first:

Row | IC50 [nM] | SMILES
18 | < 1000 | Fc1ccccc1CNc1ncc(Cc2c[nH]c3ncc(Cl)cc23)cn1 [P-0264, [5-(5-Chloro-1H-pyrrolo[2,3-b]pyridin-3-ylmethyl)-pyrimidin-2-yl]-(2-fluoro-benzyl)-amine]
19 | < 1000 | Fc1ccc(CNc2ncc(Cc3c[nH]c4ncc(Cl)cc34)cn2)c(F)c1 [P-0265, [5-(5-Chloro-1H-pyrrolo[2,3-b]pyridin-3-ylmethyl)-pyrimidin-2-yl]-(2,4-difluoro-benzyl)-amine]
20 | < 1000 | FC(F)(F)c1ccc(CNc2ncc(Cc3c[nH]c4ncc(Cl)cc34)cn2)cc1 [P-0266, [5-(5-Chloro-1H-pyrrolo[2,3-b]pyridin-3-ylmethyl)-pyrimidin-2-yl]-(4-trifluoromethyl-benzyl)-amine]
21 | < 1000 | Fc1ccc(F)c(CNc2ncc(Cc3c[nH]c4ncc(Cl)cc34)cn2)c1 [P-0267, [5-(5-Chloro-1H-pyrrolo[2,3-b]pyridin-3-ylmethyl)-pyrimidin-2-yl]-(2,5-difluoro-benzyl)-amine]
22 | < 1000 | FC(F)(F)c1cccc(CNc2ncc(Cc3c[nH]c4ncc(Cl)cc34)cn2)c1 [P-0268, [5-(5-Chloro-1H-pyrrolo[2,3-b]pyridin-3-ylmethyl)-pyrimidin-2-yl]-(3-trifluoromethyl-benzyl)-amine]
23 | < 1000 | N#Cc1cnc2[nH]cc(Cc3ccc(NCc4ccc(C(F)(F)F)cc4)nc3)c2c1 [P-0269, 3-[6-(4-Trifluoromethyl-benzylamino)-pyridin-3-ylmethyl]-1H-pyrrolo[2,3-b]pyridine-5-carbonitrile]
24 | < 1000 | Fc1ccccc1CNc1ccc(Cc2c[nH]c3ncc(Cl)cc23)cn1 [P-0270, [5-(5-Chloro-1H-pyrrolo[2,3-b]pyridin-3-ylmethyl)-pyridin-2-yl]-(2-fluoro-benzyl)-amine]
25 | < 1000 | N#Cc1cnc2[nH]cc(Cc3ccc(NCc4ccccc4F)nc3)c2c1 [P-0271, 3-[6-(2-Fluoro-benzylamino)-pyridin-3-ylmethyl]-1H-pyrrolo[2,3-b]pyridine-5-carbonitrile]
26 | < 1000 | Cc1cnc2[nH]cc(Cc3ccc(NCc4ccccc4F)nc3)c2c1 [P-0272, (2-Fluoro-benzyl)-[5-(5-methyl-1H-pyrrolo[2,3-b]pyridin-3-ylmethyl)-pyridin-2-yl]-amine]
27 | < 1000 | N#Cc1cnc2[nH]cc(Cc3ccc(NCc4ccc(C(F)(F)F)nc4)nc3)c2c1 [P-0273, 3-{6-[(6-Trifluoromethyl-pyridin-3-ylmethyl)-amino]-pyridin-3-ylmethyl}-1H-pyrrolo[2,3-b]pyridine-5-carbonitrile]
28 | < 1000 | N#Cc1cnc2[nH]cc(Cc3ccc(NCc4ccccc4C(F)(F)F)nc3)c2c1 [P-0274, 3-[6-(2-Trifluoromethyl-benzylamino)-pyridin-3-ylmethyl]-1H-pyrrolo[2,3-b]pyridine-5-carbonitrile]
29 | < 1000 | FC(F)(F)c1ccccc1CNc1ccc(Cc2c[nH]c3ncc(Cl)cc23)cn1 [P-0275, [5-(5-Chloro-1H-pyrrolo[2,3-b]pyridin-3-ylmethyl)-pyridin-2-yl]-(2-trifluoromethyl-benzyl)-amine]
30 | < 1000 | Cc1cnc2[nH]cc(Cc3ccc(NCc4ccccc4C(F)(F)F)nc3)c2c1 [P-0276, [5-(5-Methyl-1H-pyrrolo[2,3-b]pyridin-3-ylmethyl)-pyridin-2-yl]-(2-trifluoromethyl-benzyl)-amine]
31 | < 1000 | N#Cc1cnc2[nH]cc(Cc3ccc(NCc4c(F)cccc4F)nc3)c2c1 [P-0277, 3-[6-(2,6-Difluoro-benzylamino)-pyridin-3-ylmethyl]-1H-pyrrolo[2,3-b]pyridine-5-carbonitrile]
32 | < 1000 | Fc1cccc(F)c1CNc1ccc(Cc2c[nH]c3ncc(Cl)cc23)cn1 [P-0278, [5-(5-Chloro-1H-pyrrolo[2,3-b]pyridin-3-ylmethyl)-pyridin-2-yl]-(2,6-difluoro-benzyl)-amine]
33 | < 1000 | Cc1cnc2[nH]cc(Cc3ccc(NCc4ccccc4Cl)nc3)c2c1 [P-0279, (2-Chloro-benzyl)-[5-(5-methyl-1H-pyrrolo[2,3-b]pyridin-3-ylmethyl)-pyridin-2-yl]-amine]
34 | < 1000 | Clc1cnc2[nH]cc(Cc3ccc(NCc4ccccc4Cl)nc3)c2c1 [P-0280, (2-Chloro-benzyl)-[5-(5-chloro-1H-pyrrolo[2,3-b]pyridin-3-ylmethyl)-pyridin-2-yl]-amine]
35 | < 1000 | N#Cc1cnc2[nH]cc(Cc3ccc(NCc4ccccc4Cl)nc3)c2c1 [P-0281, 3-[6-(2-Chloro-benzylamino)-pyridin-3-ylmethyl]-1H-pyrrolo[2,3-b]pyridine-5-carbonitrile]
36 | < 1000 | COc1ccc(CNc2ccc(Cc3c[nH]c4ncc(C)cc34)cn2)cn1 [P-0282, (6-Methoxy-pyridin-3-ylmethyl)-[5-(5-methyl-1H-pyrrolo[2,3-b]pyridin-3-ylmethyl)-pyridin-2-yl]-amine]
37 | < 1000 | COc1ccc(CNc2ccc(Cc3c[nH]c4ncc(Cl)cc34)cn2)cn1 [P-0283, [5-(5-Chloro-1H-pyrrolo[2,3-b]pyridin-3-ylmethyl)-pyridin-2-yl]-(6-methoxy-pyridin-3-ylmethyl)-amine]
38 | < 1000 | COc1ccc(CNc2ccc(Cc3c[nH]c4ncc(C#N)cc34)cn2)cn1 [P-0284, 3-{6-[(6-Methoxy-pyridin-3-ylmethyl)-amino]-pyridin-3-ylmethyl}-1H-pyrrolo[2,3-b]pyridine-5-carbonitrile]
39 | < 1000 | COc1ncccc1CNc1ccc(Cc2c[nH]c3ncc(C)cc23)cn1 [P-0285, (2-Methoxy-pyridin-3-ylmethyl)-[5-(5-methyl-1H-pyrrolo[2,3-b]pyridin-3-ylmethyl)-pyridin-2-yl]-amine]
